In the supplement of paper PMC10307832:

Legend:
Test in all cases: relative viability (nuclei count vs DMSO), 5 days (fraction); higher = more cells survive
[1] = compound: CN(C)CC1=CC(=CC=C1)N=C(C2=CC=CC=C2)C3=C(NC4=C3C=CC(=C4)C(=O)N(C)C)O + CC(=O)c1c(C)c2cnc(Nc3ccc(N4CCNCC4)cn3)nc2n(C2CCCC2)c1=O [Palbociclib] (partner 0.5 µM)
In short: (§1)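 A single step with final 0.05% Triton X-100, 1% formaldehyde and 1 ug/ml Hoechst fixed the cells and stained nuclei 5 days after treatment. Lung cancer cell lines in 1536-well plates had been treated by pin tool the day after seeding with one drug alone or a fixed anchor-drug dose plus five library-drug doses (not always all listed) in √10 steps, and nuclei were counted on 4× images. Relative viability is the ratio of nuclei in treated wells to nuclei in vehicle wells, taken as the median of duplicate plates.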

[2] = compound: CN(C)CC1=CC(=CC=C1)N=C(C2=CC=CC=C2)C3=C(NC4=C3C=CC(=C4)C(=O)N(C)C)O + Cc1nc(Nc2ncc(C(=O)Nc3c(C)cccc3Cl)s2)cc(N2CCN(CCO)CC2)n1 [Dasatinib] (partner 0.075 µM)
In short: as §1

[3] = compound: CN(C)CC1=CC(=CC=C1)N=C(C2=CC=CC=C2)C3=C(NC4=C3C=CC(=C4)C(=O)N(C)C)O + Nc1nc2[nH]cc(CCc3ccc(C(=O)N[C@@H](CCC(=O)O)C(=O)O)cc3)c2c(=O)[nH]1 [Pemetrexed] (partner 0.2 µM)
In short: as §1

[4] = compound: CN(C)CC1=CC(=CC=C1)N=C(C2=CC=CC=C2)C3=C(NC4=C3C=CC(=C4)C(=O)N(C)C)O + O=C(CCCCCCC(=O)Nc1ccccc1)NO [Vorinostat] (partner 1 µM)
In short: as §1

Cell Line | relative viability ([1]; first compound 0.08 µM) | relative viability ([1]; first compound 0.253 µM) | relative viability ([1]; first compound 0.8 µM) | relative viability ([1]; first compound 2.53 µM) | relative viability ([1]; first compound 8 µM) | relative viability ([2]; first compound 0.08 µM) | relative viability ([2]; first compound 0.253 µM) | relative viability ([2]; first compound 0.8 µM) | relative viability ([2]; first compound 2.53 µM) | relative viability ([2]; first compound 8 µM) | relative viability ([3]; first compound 0.08 µM) | relative viability ([3]; first compound 0.253 µM) | relative viability ([3]; first compound 0.8 µM) | relative viability ([3]; first compound 2.53 µM) | relative viability ([3]; first compound 8 µM) | relative viability ([4]; first compound 0.08 µM) | relative viability ([4]; first compound 0.253 µM) | relative viability ([4]; first compound 0.8 µM) | relative viability ([4]; first compound 2.53 µM) | relative viability ([4]; first compound 8 µM)
NCI-H460 | 0.224 | 0.221 | 0.211 | 0.132 | 0.237 | 0.669 | 0.558 | 0.736 | 0.387 | 0.398 | 0.0639 | 0.0794 | 0.0612 | 0.0522 | 0.0565 | 0.722 | 0.702 | 0.716 | 0.704 | 0.728
NCI-H520 | 0.234 | 0.2 | 0.214 | 0.195 | 0.173 | 0.189 | 0.197 | 0.183 | 0.162 | 0.165 | 0.688 | 0.654 | 0.737 | 0.563 | 0.435 | 0.715 | 0.644 | 0.831 | 0.621 | 0.536
NCI-H522 | 0.956 | 1.04 | 0.906 | 0.886 | 0.923 | 0.938 | 0.97 | 0.788 | 0.837 | 0.982 | 1.03 | 1.04 | 0.763 | 1.07 | 0.817 | 0.986 | 0.984 | 0.89 | 0.977 | 0.843
NCI-H647 | 0.431 | 0.433 | 0.471 | 0.45 | 0.382 | 0.201 | 0.235 | 0.173 | 0.195 | 0.111 | 0.179 | 0.181 | 0.147 | 0.172 | 0.181 | 0.477 | 0.561 | 0.423 | 0.421 | 0.649
NCI-H650 | 0.319 | 0.371 | 0.387 | 0.355 | 0.364 | 0.521 | 0.487 | 0.447 | 0.461 | 0.447 | 0.933 | 1.14 | 1.15 | 0.979 | 0.831 | 0.452 | 0.553 | 0.557 | 0.418 | 0.395
NCI-H661 | 0.435 | 0.381 | 0.391 | 0.392 | 0.429 | 0.979 | 0.747 | 0.679 | 0.8 | 0.856 | 0.867 | 0.901 | 0.935 | 0.928 | 0.907 | 0.901 | 0.756 | 0.769 | 0.751 | 0.748
NCI-H838 | 0.253 | 0.243 | 0.199 | 0.198 | 0.177 | 0.304 | 0.304 | 0.247 | 0.281 | 0.284 | 0.247 | 0.243 | 0.23 | 0.213 | 0.253 | 0.722 | 0.726 | 0.716 | 0.703 | 0.597
NCI-H1355 | 0.425 | 0.399 | 0.305 | 0.4 | 0.4 | 0.776 | 0.776 | 0.538 | 0.82 | 0.737 | 1.03 | 0.991 | 0.926 | 0.949 | 1.02 | 0.633 | 0.688 | 0.558 | 0.608 | 0.576
